Assay results reported in patent US8912146B2, “Derivatives of APF and methods of use” (University of Maryland, Baltimore, priority 2008, dated 2014).
*1 amine or outer side, *2 acyl side, *3 side chain or, on linkers, in order; H or OH if unused. Where a SMILES comes first, the peptide text is derived from it. [ ]: non-standard residue; d: D form. The star is where a group is joined. ξ: configuration not given here. X1 = CC(=O)NC1C(O[C@@H]2OC(CO)[C@H](O)C(O)C2O)[C@@H](O)C(CO)O[C@@H]1*; X2 = CC(C)(C)OC1C[C@@H](C(=O)[*:2])N([*:1])C1; X4 = CC1(C)OC[C@@H](C(=O)[*:2])N1[*:1]; X3 = O=C([C@@H]1CC(O)CN1[*:1])[*:2]; Thr(3ξ) = CC(O)[C@H](N)C(=O)O; ξY = NC(Cc1ccc(O)cc1)C(=O)O; NMeA = CN[C@@H](C)C(=O)O; ξL = CC(C)CC(N)C(=O)O; ξV = CC(C)C(N)C(=O)O; ξA = CC(N)C(=O)O

Tested on: primary normal human bladder epithelial cells
Assay: 3H-thymidine incorporation (antiproliferative activity) in primary normal bladder epithelial cells
Format: cell-based
Conditions: for % of activity: relative to 1 (as-APF) run on the same plate, from IC50, inactive = no significant activity at <25 μM
Method: Cell Culture. Cystoscopy was performed under general anesthesia, and 4-mm^2 pieces of transitional epithelium with submucosal bladder tissue were obtained for the growth of primary bladder epithelial cells, as previously described (Keay et al., 1996; 2004). Primary normal bladder epithelial cells were propagated in DMEM-F12 (Media-Tech, Herndon Va.) with 10% heat-inactivated fetal bovine serum (FBS), 1% antibiotic/antimycotic solution, 1% L-glutamine, 0.25 units/mL insulin (all from Sigma, St. Louis, Mo.), and 5 ng/mL hEGF (R&D Systems, Minneapolis, Minn.) at 37° C. in a 5% CO2 atmosphere and characterized by binding of AE-1/AE-3 pancytokeratin antibodies (Signet, Dedham, Mass.).
^3H-Thymidine Incorporation. Cell proliferation was measured by ^3H-thymidine incorporation into explanted normal human bladder epithelial cells, plating 1.5×10^4 cells/well onto a 96 well cell culture plate (VWR 29442-054), in 150 ul/well MEM containing 10% heat inactivated FBS, 1% antibiotic/antimycotic solution, and 1% L-glutamine (all from Sigma), resulting in a doubling time of 48-72 hours, as previously described (Keay et al., 1996; 2004). Each purified lyophilized synthetic APF congener was resuspended in acetonitrile/distilled water (1:1), and applied to the cells in serum-free MEM (containing only L-glutamine and antibiotics/antimycotics); cell controls received acetonitrile/distilled water diluted in serum-free MEM alone. Cells were then incubated at 37° C. in a 5% CO2 atmosphere for 48 hours. The cell contents harvested and methanol-fixed onto glass fiber filter paper, and the amount of radioactivity incorporated determined. Significant inhibition of ^3H-thymidine incorporation was defined as a mean decrease in counts per minute of greater than 2 standard deviations from the mean of control cells for each plate. Inhibition of cell proliferation was determined from a semi-log plot of dose-response for each APF derivative; IC50 was determined as the concentration of each derivative that caused a mean 50% inhibition of thymidine incorporation as compared to the mean of untreated cell controls.
Statistical Analysis. The thymidine incorporation (APF biological activity) assay was performed in triplicate on at least two separate runs, with 1 run simultaneously in triplicate on the same plate. The significance of the difference between mean values for each congener vs. mean values for compound 1 was determined by an analysis of variance.

Row | Compound | antiproliferative activity compared with as-APF (1), in words | % of activity | activity (as-APF8 analogues Galβ1-3GalNAcα-O-TVPAA-R-R-R, Table 7) [%]
1 | CC(=O)NC1C(O[C@@H]2OC(CO)[C@H](O)C(O)C2O)[C@@H](O)C(CO)O[C@@H]1OC[C@H](N)C(=O)NC(CC(C)C)C(=O)N1CCC[C@H]1C(=O)NC(C)C(=O)N[C@@H](C)C(=O)NC(C(=O)N[C@H](C(=O)NC(C(=O)N[C@@H](C)C(=O)O)C(C)C)C(C)C)C(C)C (some centres unmarked) [Derivative 2] (H-S(X1)[ξL]P[ξA]A[ξV]V[ξV]A-OH) | two orders of magnitude loss of potency | 1% | 
2 | CC(=O)NC1C(O[C@@H]2OC(CO)[C@H](O)C(O)C2O)[C@@H](O)C(CO)O[C@@H]1OC[C@H](N)C(=O)NC(C(=O)N1CCC[C@H]1C(=O)NC(C)C(=O)N[C@@H](C)C(=O)NC(C(=O)N[C@H](C(=O)NC(C(=O)N[C@@H](C)C(=O)O)C(C)C)C(C)C)C(C)C)C(C)C (some centres unmarked) [Derivative 3] (H-S(X1)[ξV]P[ξA]A[ξV]V[ξV]A-OH) | 4 orders of magnitude | 0.01% | 
3 | CC(=O)NC1C(O[C@@H]2OC(CO)[C@H](O)C(O)C2O)[C@@H](O)C(CO)O[C@@H]1OC(C)[C@H](N)C(=O)NC(CC(C)C)C(=O)N1CCC[C@H]1C(=O)NC(C)C(=O)N[C@@H](C)C(=O)NC(C(=O)N[C@H](C(=O)NC(C(=O)N[C@@H](C)C(=O)O)C(C)C)C(C)C)C(C)C (some centres unmarked) [Derivative 4] (H-[Thr(3ξ)](X1)[ξL]P[ξA]A[ξV]V[ξV]A-OH) | inactivation | inactive | 
4 | CC(=O)NC1C(O[C@@H]2OC(CO)[C@H](O)C(O)C2O)[C@@H](O)C(CO)O[C@@H]1OC(C)[C@H](NC(=O)C(N)Cc1ccc(O)cc1)C(=O)NC(CC(C)C)C(=O)N1CCC[C@H]1C(=O)NC(C)C(=O)N[C@@H](C)C(=O)NC(C(=O)N[C@H](C(=O)NC(C(=O)N[C@@H](C)C(=O)O)C(C)C)C(C)C)C(C)C (some centres unmarked) [Derivative 6] (H-[ξY][Thr(3ξ)](X1)[ξL]P[ξA]A[ξV]V[ξV]A-OH) | approximately 2 orders of magnitude loss of potency | 1% | 
5 | CC(=O)NC1C(O[C@@H]2OC(CO)[C@H](O)C(O)C2O)[C@@H](O)C(CO)O[C@@H]1OC(C)[C@H](N)C(=O)NC(Cc1ccc(O)cc1)C(=O)N1CCC[C@H]1C(=O)NC(C)C(=O)N[C@@H](C)C(=O)NC(C(=O)N[C@H](C(=O)NC(C(=O)N[C@@H](C)C(=O)O)C(C)C)C(C)C)C(C)C (some centres unmarked) [Derivative 7] (H-[Thr(3ξ)](X1)[ξY]P[ξA]A[ξV]V[ξV]A-OH) | complete inactivation | inactive | 
6 | CC(=O)NC1C(O[C@@H]2OC(CO)[C@H](O)C(O)C2O)[C@@H](O)C(CO)O[C@@H]1OC(C)[C@H](N)C(=O)NC(C(=O)N1[C@H](C(=O)NC(C)C(=O)N[C@@H](C)C(=O)NC(C(=O)N[C@H](C(=O)NC(C(=O)N[C@@H](C)C(=O)O)C(C)C)C(C)C)C(C)C)COC1(C)C)C(C)C (some centres unmarked) [Derivative 9] (H-[Thr(3ξ)](X1)[ξV][X4][ξA]A[ξV]V[ξV]A-OH) | completely abolished activity | inactive | 
7 | CC(=O)NC1C(O[C@@H]2OC(CO)[C@H](O)C(O)C2O)[C@@H](O)C(CO)O[C@@H]1OC(C)[C@H](N)C(=O)NC(C(=O)N[C@@H](C)C(=O)NC(C)C(=O)N[C@@H](C)C(=O)NC(C(=O)N[C@H](C(=O)NC(C(=O)N[C@@H](C)C(=O)O)C(C)C)C(C)C)C(C)C)C(C)C (some centres unmarked) [Derivative 11] (H-[Thr(3ξ)](X1)[ξV]A[ξA]A[ξV]V[ξV]A-OH) | 2-3 orders of magnitude decrease | 0.3% | 
8 | CC(=O)NC1C(O[C@@H]2OC(CO)[C@H](O)C(O)C2O)[C@@H](O)C(CO)O[C@@H]1OC(C)[C@H](N)C(=O)NC(C(=O)N1CC(O)C[C@H]1C(=O)NC(C)C(=O)N[C@@H](C)C(=O)NC(C(=O)N[C@H](C(=O)NC(C(=O)N[C@@H](C)C(=O)O)C(C)C)C(C)C)C(C)C)C(C)C (some centres unmarked) [Derivative 12] (H-[Thr(3ξ)](X1)[ξV][X3][ξA]A[ξV]V[ξV]A-OH) | 2-3 orders of magnitude decrease | 0.3% | 
9 | CC(=O)NC1C(O[C@@H]2OC(CO)[C@H](O)C(O)C2O)[C@@H](O)C(CO)O[C@@H]1OC(C)[C@H](N)C(=O)NC(C(=O)N1CC(OC(C)(C)C)C[C@H]1C(=O)NC(C)C(=O)N[C@@H](C)C(=O)NC(C(=O)N[C@H](C(=O)NC(C(=O)N[C@@H](C)C(=O)O)C(C)C)C(C)C)C(C)C)C(C)C (some centres unmarked) [Derivative 13] (H-[Thr(3ξ)](X1)[ξV][X2][ξA]A[ξV]V[ξV]A-OH) | 2-3 orders of magnitude decrease | 0.2% | 
10 | CC(=O)NC1C(O[C@@H]2OC(CO)[C@H](O)C(O)C2O)[C@@H](O)C(CO)O[C@@H]1OC(C)[C@H](N)C(=O)NC(C(=O)N(C)[C@@H](C)C(=O)NC(C)C(=O)N[C@@H](C)C(=O)NC(C(=O)N[C@H](C(=O)NC(C(=O)N[C@@H](C)C(=O)O)C(C)C)C(C)C)C(C)C)C(C)C (some centres unmarked) [Derivative 14] (H-[Thr(3ξ)](X1)[ξV][NMeA][ξA]A[ξV]V[ξV]A-OH) | 4 orders of magnitude decrease | 0.05% | 
11 | CC(=O)NC1C(O[C@@H]2OC(CO)[C@H](O)C(O)C2O)[C@@H](O)C(CO)O[C@@H]1OC(C)[C@H](N)C(=O)NC(C(=O)N1CCC[C@H]1C(=O)NCCCCCCCCCCCC(=O)O)C(C)C (some centres unmarked) [Derivative 16] | completely inactive | inactive | 
12 | CC(=O)NC1C(O[C@@H]2OC(CO)[C@H](O)C(O)C2O)[C@@H](O)C(CO)O[C@@H]1OC(C)[C@H](N)C(=O)NC(C(=O)N1CCC[C@H]1C(=O)NC(C)C(=O)N[C@@H](C)C(=O)O)C(C)C (some centres unmarked) [Derivative 17] (H-[Thr(3ξ)](X1)[ξV]P[ξA]A-OH) | completely inactive | inactive | 
13 | CC(=O)NC1C(O[C@@H]2OC(CO)[C@H](O)C(O)C2O)[C@@H](O)C(CO)O[C@@H]1OC(C)[C@H](N)C(=O)NC(C(=O)N1CCC[C@H]1C(=O)NC(C)C(=O)N[C@@H](C)C(=O)NC(C(=O)N[C@H](C(=O)NC(C(=O)O)C(C)C)C(C)C)C(C)C)C(C)C (some centres unmarked) [Derivative 18, Galβ1-3GalNAcα-O-TVPAAVVV] (H-[Thr(3ξ)](X1)[ξV]P[ξA]A[ξV]V[ξV]-OH) | full activity | 100% | 100
14 | CC(=O)NC1C(O[C@@H]2OC(CO)[C@H](O)C(O)C2O)[C@@H](O)C(CO)O[C@@H]1OC(C)[C@H](N)C(=O)NC(C(=O)N1CCC[C@H]1C(=O)NC(C)C(=O)N[C@@H](C)C(=O)NC(C(=O)N[C@H](C(=O)O)C(C)C)C(C)C)C(C)C (some centres unmarked) [Derivative 19, Galβ1-3GalNAcα-O-TVPAAVV] (H-[Thr(3ξ)](X1)[ξV]P[ξA]A[ξV]V-OH) | completely inactive | inactive | 
